Experimental data taken from PubChem BioAssay AID248 (DTP/NCI, 2004).
“And” between values parts separate entries of the source, which are not always exact repeats. Equal entries are not always repeated. Toxic doses and inconclusive results are not listed. Rule as the data show it: active = T/C of 150% or more; inactive = T/C below 125%.

Tested on: L1210 leukemia ip in BDF1 mice, survival T/C
Test: NCI In Vivo Anticancer Drug Screen. Data for tumor model L1210 Leukemia (intraperitoneal) in B6D2F1 (BDF1) mice
Conditions: endpoint: mean survival time, higher = longer survival
Outline: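 Each compound was tested against a transplantable tumor grown in mice. The endpoint was survival, with treated animals benchmarked against vehicle controls as a simple ratio.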

[1] = dose: 100.0 mg/kg/injection, schedule: Q01DX009 (ip), vehicle: Klucel (hydroxypropylcellulose) (HPC)
[2] = dose: 100.0 mg/kg/injection, schedule: Q04DX003 (ip), vehicle: saline
[3] = dose: 200.0 mg/kg/injection, schedule: Q01DX009 (ip), vehicle: Klucel (hydroxypropylcellulose) (HPC)
[4] = dose: 400.0 mg/kg/injection, schedule: Q01DX009 (ip), vehicle: Klucel (hydroxypropylcellulose) (HPC)
[5] = dose: 50.0 mg/kg/injection, schedule: Q01DX009 (ip), vehicle: Klucel (hydroxypropylcellulose) (HPC)
[6] = dose: 100.0 mg/kg/injection, schedule: Q04DX003 (ip), vehicle: Klucel (hydroxypropylcellulose) (HPC)
[7] = dose: 200.0 mg/kg/injection, schedule: Q04DX003 (ip), vehicle: Klucel (hydroxypropylcellulose) (HPC)
[8] = dose: 400.0 mg/kg/injection, schedule: Q04DX003 (ip), vehicle: Klucel (hydroxypropylcellulose) (HPC)
[9] = dose: 50.0 mg/kg/injection, schedule: Q01DX001 (ip), vehicle: Klucel (hydroxypropylcellulose) (HPC)
[10] = dose: 100.0 mg/kg/injection, schedule: Q01DX001 (ip), vehicle: Klucel (hydroxypropylcellulose) (HPC)
[11] = dose: 200.0 mg/kg/injection, schedule: Q01DX001 (ip), vehicle: Klucel (hydroxypropylcellulose) (HPC)
[12] = dose: 100.0 mg/kg/injection, schedule: Q01DX001 (ip), vehicle: carboxymethylcellulose (CMC)
[13] = dose: 200.0 mg/kg/injection, schedule: Q01DX001 (ip), vehicle: carboxymethylcellulose (CMC)
[14] = dose: 400.0 mg/kg/injection, schedule: Q01DX001 (ip), vehicle: carboxymethylcellulose (CMC)
[15] = dose: 100.0 mg/kg/injection, schedule: Q01DX001 (ip), vehicle: saline
[16] = dose: 200.0 mg/kg/injection, schedule: Q01DX001 (ip), vehicle: saline
[17] = dose: 400.0 mg/kg/injection, schedule: Q01DX001 (ip), vehicle: saline
[18] = dose: 100.0 mg/kg/injection, schedule: Q04DX003 (ip), vehicle: saline with Tween-80
[19] = dose: 200.0 mg/kg/injection, schedule: Q04DX003 (ip), vehicle: saline with Tween-80
[20] = dose: 400.0 mg/kg/injection, schedule: Q04DX003 (ip), vehicle: saline with Tween-80

Measured: T/C

Nc1ccc2c(O)c(N=Nc3ccc4c(O)cc(S(=O)(=O)O)cc4c3)c(S(=O)(=O)O)cc2c1
inactive: [1] 100 % of control | [2] 96 % of control | [3] 112 % of control | dose: 200.0 mg/kg/injection, schedule: Q04DX003 (ip), vehicle: saline 100 % of control | [4] 88 % of control | dose: 400.0 mg/kg/injection, schedule: Q04DX003 (ip), vehicle: saline 94 % of control

O=c1cc(-c2ccccc2)oc(-c2ccc(Cl)cc2)c1
inactive: dose: 25.0 mg/kg/injection, schedule: Q01DX009 (ip), vehicle: Klucel (hydroxypropylcellulose) (HPC) 98 % of control | [5] 98 % of control | [1] 100 % of control | [6] 97 % of control | [7] 90 % of control | [8] 100 % of control

CC(C)(/C=N/NC(N)=O)c1ccccc1
inactive: [9] 96 % of control | [10] 102 % of control | [11] 96 % of control

CCOc1ccc(Br)cc1C1N(Cc2ccc(N(CCCl)CCCl)cc2C)CCCN1Cc1ccc(N(CCCl)CCCl)cc1C
inactive: [12] 106 % of control | [13] 101 % of control | [14] 108 % of control

O=C1OC(=O)c2ccc([N+](=O)[O-])c3c(C(=O)O)ccc1c23
inactive: dose: 50.0 mg/kg/injection, schedule: Q01DX001 (ip), vehicle: saline 101 % of control | [15] 104 % of control | [16] 104 % of control | [17] 104 % of control

CSc1nc(C)cc(SC(=N)N)n1
inactive: dose: 25.0 mg/kg/injection, schedule: Q01DX009 (ip), vehicle: saline 105 % of control | dose: 25.0 mg/kg/injection, schedule: Q04DX003 (ip), vehicle: saline 98 % of control | dose: 50.0 mg/kg/injection, schedule: Q01DX009 (ip), vehicle: saline 102 % of control | dose: 50.0 mg/kg/injection, schedule: Q04DX003 (ip), vehicle: saline 97 % of control | [2] 100 % of control and 101 % of control

c1ccc2c(c1)O[As](O[As]1Oc3ccccc3O1)O2
inactive: dose: 1.56 mg/kg/injection, schedule: Q04DX003 (ip), vehicle: saline 104 % of control | dose: 3.12 mg/kg/injection, schedule: Q01DX009 (ip), vehicle: saline with Tween-80 108 % of control | dose: 3.12 mg/kg/injection, schedule: Q04DX003 (ip), vehicle: saline 106 % of control | dose: 6.25 mg/kg/injection, schedule: Q01DX009 (ip), vehicle: saline with Tween-80 116 % of control | dose: 6.25 mg/kg/injection, schedule: Q04DX003 (ip), vehicle: saline 115 % of control | dose: 12.5 mg/kg/injection, schedule: Q01DX009 (ip), vehicle: saline with Tween-80 122 % of control | dose: 12.5 mg/kg/injection, schedule: Q04DX003 (ip), vehicle: saline with Tween-80 96 % of control

Cc1cc(C)cc(OC(=O)/C=C/C(=O)Oc2cc(C)cc(C)c2)c1
inactive: dose: 100.0 mg/kg/injection, schedule: Q01DX009 (ip), vehicle: saline with Tween-80 105 % of control | dose: 200.0 mg/kg/injection, schedule: Q01DX009 (ip), vehicle: saline with Tween-80 100 % of control | dose: 400.0 mg/kg/injection, schedule: Q01DX009 (ip), vehicle: saline with Tween-80 102 % of control

Oc1ccc(O)c(CCCc2cc(O)ccc2O)c1
inactive: [18] 98 % of control | [19] 98 % of control | [20] 90 % of control

ClCc1c2ccccc2c(CCl)c2ccccc12
inactive: dose: 0.9 mg/kg/injection, schedule: Q01DX009 (ip), vehicle: saline with Tween-80 118 % of control | dose: 1.35 mg/kg/injection, schedule: Q01DX009 (ip), vehicle: saline with Tween-80 120 % of control | dose: 2.05 mg/kg/injection, schedule: Q01DX009 (ip), vehicle: saline with Tween-80 111 % of control | dose: 2.08 mg/kg/injection, schedule: Q01DX009 (ip), vehicle: saline 120 % of control | dose: 3.12 mg/kg/injection, schedule: Q01DX009 (ip), vehicle: saline 111 % of control | dose: 4.0 mg/kg/injection, schedule: Q01DX009 (ip), vehicle: carboxymethylcellulose (CMC) 110 % of control | dose: 4.68 mg/kg/injection, schedule: Q01DX009 (ip), vehicle: saline with Tween-80 94 % of control | dose: 4.68 mg/kg/injection, schedule: Q01DX009 (ip), vehicle: saline 98 % of control | dose: 5.0 mg/kg/injection, schedule: Q01DX009 (ip), vehicle: carboxymethylcellulose (CMC) 121 % of control | dose: 6.2 mg/kg/injection, schedule: Q01DX015 (ip), vehicle: carboxymethylcellulose (CMC) 112 % of control | dose: 7.0 mg/kg/injection, schedule: Q01DX001 (ip), vehicle: saline 114 % of control | dose: 9.3 mg/kg/injection, schedule: Q01DX015 (ip), vehicle: carboxymethylcellulose (CMC) 106 % of control | dose: 14.0 mg/kg/injection, schedule: Q01DX001 (ip), vehicle: saline 104 % of control | dose: 14.0 mg/kg/injection, schedule: Q01DX015 (ip), vehicle: carboxymethylcellulose (CMC) 104 % of control | dose: 16.0 mg/kg/injection, schedule: Q01DX009 (ip), vehicle: carboxymethylcellulose (CMC) 119 % of control | dose: 20.0 mg/kg/injection, schedule: Q01DX009 (ip), vehicle: carboxymethylcellulose (CMC) 123 % of control | dose: 28.0 mg/kg/injection, schedule: Q01DX001 (ip), vehicle: saline 104 % of control | dose: 56.0 mg/kg/injection, schedule: Q01DX001 (ip), vehicle: saline 109 % of control | dose: 88.8 mg/kg/injection, schedule: Q01DX001 (ip), vehicle: saline 113 % of control | [15] 118 % of control | dose: 112.0 mg/kg/injection, schedule: Q01DX001 (ip), vehicle: saline 109 % of control | [16] 109 % of control | dose: 300.0 mg/kg/injection, schedule: Q01DX001 (ip), vehicle: saline 109 % of control | [17] 92 % of control

NC(N)=N/N=C/c1cccc(Cl)c1Cl
inactive: dose: 7.5 mg/kg/injection, schedule: Q01DX Z (ip), vehicle: other 97 % of control | dose: 15.0 mg/kg/injection, schedule: Q01DX Z (ip), vehicle: other 100 % of control | dose: 30.0 mg/kg/injection, schedule: Q01DX Z (ip), vehicle: other 92 % of control | dose: 60.0 mg/kg/injection, schedule: Q01DX Z (ip), vehicle: other 86 % of control

CCCC(CC)C(=O)OCCCSCCCOC(=O)C(CC)CCC (stereo unspecified)
inactive: dose: 222.0 mg/kg/injection, schedule: Q01DX Z (ip), vehicle: methylcellulose (MC) 92 % of control | dose: 333.0 mg/kg/injection, schedule: Q01DX Z (ip), vehicle: methylcellulose (MC) 94 % of control | dose: 500.0 mg/kg/injection, schedule: Q01DX Z (ip), vehicle: methylcellulose (MC) 87 % of control

O=C(CNc1ccccc1)c1ccc(O)c(C(=O)O)c1 (tested in a mixture with another compound)
inactive: [6] 91 % of control | [7] 90 % of control | [8] 93 % of control

O=C(c1ccccc1)C(Nc1ccc(Br)cc1)Nc1ccc(Br)cc1
inactive: [12] 96 % of control | [13] 102 % of control | [14] 96 % of control

CCCCCCCCCCCCCCCCOc1ccc(C2=NCC(C)S2)c(C)c1 (stereo unspecified)
inactive: [1] 101 % of control | [3] 96 % of control | [4] 97 % of control

CCCCCOC(=O)c1ccccc1C(=O)OCCCCC
inactive: [9] 103 % of control | [10] 110 % of control | [11] 104 % of control

CCOC(=O)c1ccc(OC(=O)Nc2ccc(Cl)c([N+](=O)[O-])c2)cc1
inactive: [5] 94 % of control | [1] 90 % of control | [6] 100 % of control | [3] 92 % of control | [7] 94 % of control

CCCN(CCC)C(=O)C1C2C=CC(C2)C1C(=O)N(CCC)CCC (stereo unspecified)
inactive: [18] 98 % of control | [19] 111 % of control | [20] 98 % of control
